Assay: GoMiner gene ontology analysis of differentially regulated genes
Design: species or system human
[1] = Cellular component: Chromosome, GO 0005694, Total 108
[2] = Cellular component: Cytoplasm, GO 0005737, Total 1705
[3] = Cellular component: Cytoplasmic vesicle, GO 0016023, Total 59
[4] = Cellular component: Cytoskeleton, GO 0005856, Total 334
[5] = Cellular component: Cytosol, GO 0005829, Total 176
[6] = Cellular component: Endoplasmic reticulum, GO 0005783, Total 244
[7] = Cellular component: Extracellular, GO 0005576, Total 586
[8] = Cellular component: Membrane, GO 0016020, Total 1976
[9] = Cellular component: Mitochondrion, GO 0005739, Total 315
[10] = Cellular component: Nucleus, GO 0005634, Total 1483
[11] = Cellular component: Ribosome, GO 0005840, Total 61
[12] = Cellular component: actin cytoskeleton, GO 0015629, Total 120
[13] = Cellular component: endomembrane system, GO 0012505, Total 112
[14] = Cellular component: extracellular matrix, GO 0005578, Total 181
[15] = Cellular component: extracellular space, GO 0005615, Total 228
[16] = Cellular component: integral to membrane, GO 0016021, Total 1549
[17] = Cellular component: microtubule cytoskeleton, GO 0015630, Total 78
[18] = Cellular component: mitochondrial membrane, GO 0005740, Total 75
[19] = Cellular component: nuclear membrane, GO 0005635, Total 50
[20] = Cellular component: nucleolus, GO 0005730, Total 39
[21] = Cellular component: nucleoplasm, GO 0005654, Total 91
[22] = Cellular component: plasma membrane, GO 0005886, Total 1041
[23] = Molecular function: Apoptosis regulator activity, GO 0016329, Total 44
[24] = Molecular function: Binding, GO 0005488, Total 3368
[25] = Molecular function: Catalytic activity, GO 0003824, Total 2129
[26] = Molecular function: Cell adhesion molecule activity, GO 0005194, Total 209
[27] = Molecular function: Defense/immunity protein activity, GO 0003793, Total 36
[28] = Molecular function: Enzyme regulator activity, GO 0030234, Total 306
[29] = Molecular function: Motor activity, GO 0003774, Total 61
[30] = Molecular function: Obsolete molecular function, GO 0008369, Total 419
[31] = Molecular function: Signal transducer activity, GO 0004871, Total 1157
[32] = Molecular function: Structural molecule activity, GO 0005198, Total 333
[33] = Molecular function: Transcription regulator activity, GO 0030528, Total 630
[34] = Molecular function: Translation regulator activity, GO 0045182, Total 43
[35] = Molecular function: Transporter activity, GO 0005215, Total 822
[36] = Molecular function: carrier activity, GO 0005386, Total 239
[37] = Molecular function: electron transporter activity, GO 0005489, Total 138
[38] = Molecular function: enzyme inhibitor activity, GO 0004857, Total 132
[39] = Molecular function: extracellular matrix structural constituent, GO 0005201, Total 60
[40] = Molecular function: hydrolase activity, GO 0016787, Total 917
[41] = Molecular function: kinase activity, GO 0016301, Total 409
[42] = Molecular function: lipid binding, GO 0008289, Total 94
[43] = Molecular function: metal ion binding, GO 0046872, Total 631
[44] = Molecular function: nucleic acid binding, GO 0003676, Total 1232
[45] = Molecular function: nucleotide binding, GO 0000166, Total 763
[46] = Molecular function: oxidoreductase activity, GO 0016491, Total 320
[47] = Molecular function: protein binding, GO 0005515, Total 814
[48] = Molecular function: receptor activity, GO 0004872, Total 678
[49] = Molecular function: receptor binding (under Binding), GO 0005102, Total 301
[50] = Molecular function: receptor binding (under Signal transducer activity), GO 0005102, Total 301
[51] = Molecular function: receptor signaling protein activity, GO 0005057, Total 127
[52] = Molecular function: structural constituent of cytoskeleton, GO 0005200, Total 62
[53] = Molecular function: transcription factor activity, GO 0003700, Total 472
[54] = Molecular function: transferase activity, GO 0016740, Total 706

Nc1ncn([C@H]2C[C@H](O)[C@@H](CO)O2)c(=O)n1 [5-aza-dC, 5-aza-2′-deoxycytidine]
14: 5-aza-dC Up [35] | 5-aza-dC Up [49] | 5-aza-dC Up [50]
30: 5-aza-dC Up [2]
12: 5-aza-dC Down [25] | 5-aza-dC Up [30] | 5-aza-dC Up [43] | 5-aza-dC Up [53]
10: 5-aza-dC Up [1] | 5-aza-dC Up [45]
26: 5-aza-dC Up [47]
24: 5-aza-dC Up [8]
0: 5-aza-dC Down [1] | 5-aza-dC Down [3] | 5-aza-dC Down [12] | 5-aza-dC Up [12] | 5-aza-dC Down [13] | 5-aza-dC Down [14] | 5-aza-dC Down [15] | 5-aza-dC Up [17] | 5-aza-dC Down [18] | 5-aza-dC Up [18] | 5-aza-dC Down [19] | 5-aza-dC Up [19] | 5-aza-dC Down [20] | 5-aza-dC Down [21] | 5-aza-dC Down [23] | 5-aza-dC Down [26] | 5-aza-dC Down [27] | 5-aza-dC Down [29] | 5-aza-dC Up [29] | 5-aza-dC Down [33] | 5-aza-dC Down [39] | 5-aza-dC Down [42] | 5-aza-dC Down [43] | 5-aza-dC Down [51] | 5-aza-dC Up [51] | 5-aza-dC Down [52] | 5-aza-dC Down [53]
1: 5-aza-dC Down [4] | 5-aza-dC Down [5] | 5-aza-dC Down [6] | 5-aza-dC Down [7] | 5-aza-dC Down [11] | 5-aza-dC Up [11] | 5-aza-dC Up [13] | 5-aza-dC Down [17] | 5-aza-dC Up [20] | 5-aza-dC Up [27] | 5-aza-dC Down [30] | 5-aza-dC Down [34] | 5-aza-dC Up [34] | 5-aza-dC Down [35] | 5-aza-dC Down [36] | 5-aza-dC Down [37] | 5-aza-dC Up [39] | 5-aza-dC Up [42] | 5-aza-dC Down [47] | 5-aza-dC Down [49] | 5-aza-dC Down [50] | 5-aza-dC Up [52]
18: 5-aza-dC Up [16] | 5-aza-dC Up [33]
36: 5-aza-dC Up [44]
43: 5-aza-dC Up [25]
23: 5-aza-dC Up [7] | 5-aza-dC Up [31]
5: 5-aza-dC Down [16] | 5-aza-dC Up [21] | 5-aza-dC Down [28] | 5-aza-dC Down [31] | 5-aza-dC Up [37] | 5-aza-dC Down [54]
2: 5-aza-dC Up [3] | 5-aza-dC Up [5] | 5-aza-dC Down [9] | 5-aza-dC Down [38] | 5-aza-dC Up [41] | 5-aza-dC Down [46]
9: 5-aza-dC Down [2] | 5-aza-dC Down [24]
3: 5-aza-dC Up [9] | 5-aza-dC Down [22] | 5-aza-dC Up [26] | 5-aza-dC Down [32] | 5-aza-dC Up [36] | 5-aza-dC Down [41] | 5-aza-dC Down [45]
4: 5-aza-dC Up [4] | 5-aza-dC Up [6] | 5-aza-dC Up [14] | 5-aza-dC Up [23] | 5-aza-dC Up [32] | 5-aza-dC Up [38] | 5-aza-dC Down [40] | 5-aza-dC Down [48]
25: 5-aza-dC Up [40]
13: 5-aza-dC Up [15] | 5-aza-dC Up [22]
8: 5-aza-dC Up (Cellular component: Cellular—component unknown, GO 0008372, Total 266) | 5-aza-dC Up [54]
11: 5-aza-dC Up [48]
7: 5-aza-dC Down [10]
83: 5-aza-dC Up [24]
6: 5-aza-dC Down [8] | 5-aza-dC Up [28] | 5-aza-dC Down [44] | 5-aza-dC Up [46]
44: 5-aza-dC Up [10]

Source: patent publication US20050250137A1, “Molecular targets of cancer and aging” (priority 2002, published 2005)
